Reference: patent publication US9079048B2, “Cosmetic or dermopharmaceutical composition comprising enkephalin-derived peptides for reducing and/or eliminating facial wrinkles” (Lipotec, S.A., priority 2005, dated 2015)
Non-standard residues stand in square brackets, D forms with d. No end group written: not given here.

Tests used:
Assay type in all cases: cell-based
[1] = tested on: primary cultures of rat hippocampus neurons; assay: Neuronal exocytosis of [3H]-L-glutamate; details: 1 mM peptide alone, 1 hour at 37° C; depolarization with 75 mM KCl and 2 mM CaCl2; FIG. 4
Procedure: To determine if the enkephalin-derived peptides inhibit the neuronal exocytosis of neurotransmitters, their activity on the release of the neurotransmitter L-glutamate from primary cultures of rat hippocampus neurons was monitored. The exocytosis of this neurotransmitter in neuronal cultures can be achieved by means of the […] depolarization of the cells. The primary cultures of rat embryo hippocampus are prepared by means of conventional methods [Blanes-Mira, C., Merino, J. M., Valera, E., Fernandez-Ballester, G., Gutierrez, L. M., Viniegra, S., Pérez-Payá, E. and Ferrer-Montiel, A. Small peptides patterned after the N-terminus domain of SNAP25 inhibit SNARE complex assembly and regulated exocytosis. J. Neurochem. 88, 124-135] and are maintained in culture for 14 days in an incubator at 37° C. and 5% CO2. The cultures are incubated with [^3H]-L-glutamine to load them with [^3H]-L-glutamate for 3 hours at 37° C. The excess [^3H]-L-glutamine is then washed and they are incubated with 1 mM of the peptides to be studied for 1 hour at 37° C. The release of [^3H]-L-glutamate is carried out by means of depolarization with 75 mM KCl and 2 mM CaCl2 buffered in physiological buffer for 10 minutes at 37° C. The culture medium is collected and the amount of [^3H]-L-glutamate is quantified in a beta radioactivity counter. The results are standardized with respect to the release of [^3H]-L-glutamate in the absence of the peptide and are corrected with respect to the baseline release in the absence of calcium. […] The incubation with the enkephalin-derived peptide defined by SEQ ID NO: 6 caused a 4% inhibition.
In order to determine if the activity of enkephalin-derived peptides is additive and/or synergistic with the exocytosis inhibiting peptide Argireline®, defined by SEQ ID NO: 5, the potency of both peptides for separately and jointly inhibiting the electrically evoked release of [^3H]-L-glutamate in the presence of Ca^2+ was compared. […]

[2] = tested on: neurons in primary cultures of rat dorsal root ganglia; assay: Neuronal excitability, electrically evoked action potentials (40 mV depolarizing stimulus), patch clamp current-clamp; details: 1 mM peptide
Procedure: (§1) The activity of the enkephalin-derived peptide defined by SEQ ID NO: 7 (Tyr-D-Ala-Gly-Phe-Leu) on the excitability of neurons was studied in primary cultures of rat dorsal root ganglia. These neurons were extracted following widely known methods [Nicol, G. D., Lopshire, J. C. and Pafford, C. M. (1997) Tumor necrosis factor enhances the capsaicin sensitivity of rat sensory neurons. J. Neurosci. 17, 975-982]. The neurons were cultured in a DMEM medium supplemented with 10% bovine serum, 5% horse serum and 50 ng/mL NGF for 2 days and the electrical activity was followed by means of a patch clamp technique with a conventional electrophysiology equipment in the current-clamp configuration [Hille, B. (2001) Ion channels of excitable membranes. Third Ed. Sinauer Associates, Inc]. Two neuron stimulation protocols were used to determine the inhibitory effect of the enkephalin-derived peptide defined by SEQ ID NO: 7.
Secondly, the effect of the enkephalin-derived peptide defined by SEQ ID NO: 7 on electrically evoked neuronal activity was evaluated. To that end, the neurons were excited with a depolarizing electrical stimulus of 40 mV from their rest potential. As a result, the repetitive action potentials were triggered throughout the electrical stimulation time (FIG. 2). […]

[3] = tested on: neurons in primary cultures of rat dorsal root ganglia; assay: Neuronal excitability, action potentials evoked by chemical stimulus (pH 6.0), patch clamp current-clamp; details: 1 mM peptide
Procedure: as §1
The neurons were first stimulated by means of a chemical stimulus such as the exposure to a buffered solution at pH 6.0. In these conditions, acid-dependent channels depolarizing the neuronal membrane are activated, triggering action potentials (FIG. 1). […] The inhibition of neuronal excitability caused by the enkephalin-derived peptide defined by SEQ ID NO: 7 is reversible as shown by the recovery of said excitability after eliminating the peptide from the extracellular medium. […]

| Substance | inhibition of exocytosis of [3H]-L-glutamate [1] [%] | reversibility of the inhibition of electrically evoked action potentials ([2]; after washing) | effect on electrically evoked action potentials ([2]; depolarizing electrical stimulus of 40 mV from rest potential, FIG. 2) | effect on action potentials evoked by exposure to acidic extracellular medium ([3]; buffered solution at pH 6.0, FIG. 1) | reversibility of the inhibition of neuronal excitability after eliminating the peptide ([3]; pH 6.0 stimulus, after washing) |
| --- | --- | --- | --- | --- | --- |
| Tyr-D-Ala-Gly-Phe-Leu (Y[dA]GFL; listed as Homo sapiens) [SEQ ID NO: 7, enkephalin-derived peptide] | 12 | partially reversible | decrease in the frequency and amplitude of the action potentials | inhibition of the action potentials | reversible |
| Argireline®: exocytosis inhibiting peptide, acetyl hexapeptide-8 marketed by Lipotec, residues 12 to 17 of protein SNAP-25 (Ac-EEMQRR-NH2; listed as Homo sapiens) [reference compound] | 18 |  |  |  |  |
| Tyr-Gly-Phe-Leu (YGFL; printed: Tyr-Gly-Phe-Leu) [SEQ ID NO: 6, enkephalin-derived peptide] | 4 |  |  |  |  |
